In ChEMBL document CHEMBL5257078, “Alkaloids and Polyacetylenes from Hippobroma longiflora with Antiangiogenesis Properties” (J Nat Prod, 2023):
In brackets after ≈: the same amount, converted by molar mass.

Assays:
[1] = Antiangiogenic activity in human EPC cells assessed as suppression of EPC tube formation incubated for 24 hrs by microscopic analysis; assay type: functional, cell-based
[2] = Cytotoxicity against human EPC cells assessed as LDH release; assay type: toxicity, cell-based

Compound | IC50 [1] [µg/mL] | Activity [2]
C/C=C/C#C/C=C\c1c(O)cccc1CO | 21.1 (≈ 98.5 µM) | Non-Toxic
C/C=C/C#C/C=C/c1c(O)cccc1CO | 24.5 (≈ 114 µM) | Non-Toxic
O=C(c1ccccc1)[C@H]1CN2O[C@H]1CCC[C@@H]2C[C@H](O)c1ccccc1 | 44 (≈ 125 µM) | Non-Toxic
O=C(c1ccccc1)[C@H]1CN2O[C@@H]1CCC[C@H]2C[C@H](O)c1ccccc1 | 33.4 (≈ 95 µM) | Non-Toxic
C/C=C/C#C/C=C/[C@@]1(O)[C@H](CO)CC=C[C@H]1O | 27.6 (≈ 118 µM) | Non-Toxic
C[N@+]1([O-])CO[C@H](c2ccccc2)C[C@@H]1CCCCCC(=O)c1ccccc1 | 32 (≈ 87.1 µM) | Non-Toxic
CNC(=O)c1cc(Oc2ccc(NC(=O)Nc3ccc(Cl)c(C(F)(F)F)c3)cc2)ccn1 [SORAFENIB] | 3.7 (≈ 7.96 µM) | 
O=C(c1ccccc1)[C@@H]1CN2O[C@@H]1CCC[C@H]2C[C@H](O)c1ccccc1 | 30.6 (≈ 87.1 µM) | 
